US5187192A, “Cyclobutyl derivatives having lipoxygenase inhibitory activity” (Abbott Laboratories, priority 1992, dated 1993)

What was measured:
[1] = test system: leukotriene biosynthesis; test: Inhibition of leukotriene biosynthesis in vivo after oral administration, rat peritoneal anaphylaxis model; settings: at 30 μM/kg, gavage one hour prior to antigen challenge, peritoneal fluid 15 minutes after challenge
Description: Inhibition of the biosynthesis of leukotrienes in vivo after oral administration of compound was determined using a rat peritoneal anaphylaxis model in a similar manner as that described by Yound and coworkers (Young, P. R.; Dyer, R. D.; Carter, G. W. Fed. Proc., Fed. Am. Soc. Exp. Biol. 1985, 44, 1185). In this model rats were injected intraperitoneally (ip) with rabbit antibody to bovine serum albumin (BSA) and three hours later injected ip with BSA to induce an antigen-antibody response. Rats were sacrificed 15 minutes after this challenge and the peritoneal fluids were collected and analyzed for leukotriene levels. Test compounds were administered by gavage one hour prior to the antigen challenge. Percent inhibition values were determined by comparing the treatment group to the mean of the control group.

[2] = molecular target: T1, 5-Lipoxygenase (Homo sapiens, UniProt P09917); test: Inhibition of calcium ionophore-induced LTB4 biosynthesis in human whole blood (5-lipoxygenase inhibition); format: cell-based; settings: human heparinized whole blood, A23187 8.3 μM; for IC50: 15 min preincubation at 37° C., 30 min, read-out: IC50, inhibition of 5-lipoxygenase from stimulated LTB4 formation in human whole blood; for percent inhibition of 5-lipoxygenase from stimulated LTB4 formation in human whole blood: @ 0.1 (column unit 10^-6 M)
T1 construct: Human heparinized whole blood was preincubated with test compounds or vehicle for 15 min; endogenous in cells; host or cells: heparinized human whole blood (blood cells stimulated with calcium ionophore A23187)
T1 sequence (P09917 1-674): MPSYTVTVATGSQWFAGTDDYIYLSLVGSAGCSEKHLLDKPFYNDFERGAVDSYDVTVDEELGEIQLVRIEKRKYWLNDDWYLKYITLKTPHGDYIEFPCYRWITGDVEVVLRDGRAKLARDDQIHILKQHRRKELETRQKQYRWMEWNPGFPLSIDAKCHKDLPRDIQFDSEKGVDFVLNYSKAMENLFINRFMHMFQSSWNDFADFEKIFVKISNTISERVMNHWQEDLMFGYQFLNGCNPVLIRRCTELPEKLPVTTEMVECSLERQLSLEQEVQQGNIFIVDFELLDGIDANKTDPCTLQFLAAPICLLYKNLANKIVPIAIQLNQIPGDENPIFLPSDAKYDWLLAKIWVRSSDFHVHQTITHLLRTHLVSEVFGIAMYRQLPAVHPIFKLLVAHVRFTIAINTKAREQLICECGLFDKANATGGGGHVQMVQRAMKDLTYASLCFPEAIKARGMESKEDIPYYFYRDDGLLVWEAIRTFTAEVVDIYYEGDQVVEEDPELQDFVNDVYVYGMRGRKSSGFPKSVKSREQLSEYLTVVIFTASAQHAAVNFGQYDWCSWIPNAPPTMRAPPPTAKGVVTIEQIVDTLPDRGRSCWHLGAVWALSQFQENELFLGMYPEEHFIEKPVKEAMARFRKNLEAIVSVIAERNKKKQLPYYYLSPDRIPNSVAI
Description: Inhibition of leukotriene biosynthesis was evaluated in an assay, involving calcium ionophore-induced LTB4 biosynthesis expressed human whole blood. […] The methanol extract was analyzed for LTB4 using a commercially available radioimmunoassay.

| SMILES | Percent Inhibition of Leukotriene Biosynthesis [1] [%] | IC50 [2] [nM] | percent inhibition of 5-lipoxygenase from stimulated LTB4 formation in human whole blood [2] [%] |
| --- | --- | --- | --- |
| NC(=O)N(O)C1CC(c2cccc(Oc3ccc(F)cc3)c2)C1 (single isomer, unassigned) [Example 1a, N-[3-(3-(4-fluorophenoxy)phenyl)-cyclobutyl]-N-hydroxyurea] | 76 | 130 |  |
| NC(=O)N(O)C1CC(c2cccc(Oc3ccc(F)cc3)c2)C1 (single isomer, unassigned) [Example 1b, N-[3-(3-(4-fluorophenoxy)phenyl)-cyclobutyl]-N-hydroxyurea] | 59 | 160 |  |
| NC(=O)N(O)C1CC(c2ccccc2)C1 (single isomer, unassigned) [Example 2a, N-[3-phenylcyclobutyl]-N-hydroxyurea] | 51 | 330 |  |
| NC(=O)N(O)C1CC(c2ccccc2)C1 (single isomer, unassigned) [Example 2b, N-[3-phenylcyclobutyl]-N-hydroxyurea] | 45 | 300 |  |
| NC(=O)N(O)C1CC(c2ccc(Oc3ccc(F)cc3)s2)C1 (single isomer, unassigned) [Example 3a, N-[3-(5-(4-fluorophenoxy)thien-2-yl)-cyclobutyl]-N-hydroxyurea] |  |  | 53 |
| NC(=O)N(O)C1CC(c2ccc(Oc3ccc(F)cc3)s2)C1 (single isomer, unassigned) [Example 3b, N-[3-(5-(4-fluorophenoxy)thien-2-yl)-cyclobutyl]-N-hydroxyurea] | 82 |  | 52 |
| COc1ccc2cc(C3CC(N(O)C(N)=O)C3)ccc2c1 (single isomer, unassigned) [Example 4a, N-[3-(6-methoxy-2-naphthyl)-cyclobutyl]-N-hydroxyurea] |  | 230 |  |
| COc1ccc2cc(C3CC(N(O)C(N)=O)C3)ccc2c1 (single isomer, unassigned) [Example 4b, N-[3-(6-methoxy-2-naphthyl)-cyclobutyl]-N-hydroxyurea] |  | 520 |  |
| NC(=O)N(O)C1CC(c2ccc(-c3ccccc3)cc2)C1 (single isomer, unassigned) [Example 5a, N-[3-(4-biphenyl)-cyclobutyl]-N-hydroxyurea] |  | 90 |  |
| NC(=O)N(O)C1CC(c2ccc(-c3ccccc3)cc2)C1 (single isomer, unassigned) [Example 5b, N-[3-(4-biphenyl)-cyclobutyl]-N-hydroxyurea] |  | 960 |  |
| COc1cccc(C2CC(N(O)C(C)=O)C2)c1 (single isomer, unassigned) [Example 6a, N-[3-(3-methoxyphenyl)cyclobutyl]-N-hydroxyacetamide] |  | 510 |  |
| COc1cccc(C2CC(N(O)C(C)=O)C2)c1 (single isomer, unassigned) [Example 6b, N-[3-(3-methoxyphenyl)cyclobutyl]-N-hydroxyacetamide] |  | 1210 |  |
